# From patent US20250073340A1, “SPIROCYCLIC MDM2 MODULATOR AND USES THEREOF” (Newave Pharmaceutical Inc., priority 2021, published 2025)
# pIC50: −log10 of the molar value. Like-named read-outs stand apart in the source and are kept apart here.
# System: BCL-2-dependent acute lymphoblastic leukemia (ALL) cell line RS4;11 overexpressing Bcl-2 G101V
# Assay: cells
# Assay type: cell-based
# Conditions: Homo sapiens, read-out: RS4;11-G101V IC50
# Description: Biological Example 2: In vitro Anti-proliferation Assay in BCL-2-dependent acute lymphoblastic leukemia (ALL) cell line RS4; 11 overexpressing Bcl-2 G101V
# Cell antiproliferation was assayed by PerkinElmer ATPlite™ Luminescence Assay System. Briefly, the various test cancer cell lines were plated at a density of about 1×10^4 cells per well in Costar 96-well plates, and were incubated with different concentrations of compounds for about 72 hours in medium supplemented with 5% FBS or 10% normal human serum (NHS). One lyophilized substrate solution vial was then reconstituted by adding 5 mL of substrate buffer solution, and was agitated gently until the solution was homogeneous. About 50 μL of mammalian cell lysis solution was added to 100 μL of cell suspension per well of a microplate, and the plate was shaken for about five minutes in an orbital shaker at −700 rpm. This procedure was used to lyse the cells and to stabilize the ATP. Next, 50 μL substrate solution was added to the wells and microplate was shaken for five minutes in an orbital shaker at −700 rpm. Finally, the luminescence was measured by a PerkinElmer TopCount® Microplate Scintillation Counter. Such assays, carried out with a range of doses of test compounds, allowed the determination of the cellular anti-antiproliferative IC50 of the compounds of the present invention.
# [1] = RS4-11, about 72 hours, ATPlite luminescence
pIC50 [1],Compound,"pIC50 (RS4-11, 72 h)"
,"COc1cc(C(N)=O)ccc1NC(=O)[C@@H]1N[C@@H](CC(C)(C)C)[C@@]2(CNc3cc(Cl)ccc32)[C@H]1c1cccc(Cl)c1F [Example 1, (2′S,3S,4′S,5′R)—N-(4-carbamoyl-2-methoxyphenyl)-6-chloro-4′-(3-chloro-2-fluorophenyl)-2′-neopentylspiro[indoline-3,3′-pyrrolidine]-5′-carboxamide]",7.48
6.90,"COc1cc(C(N)=O)ccc1NC(=O)[C@@]1(C)N[C@H](CC(C)(C)C)[C@]2(CNc3cc(Cl)ccc32)[C@@H]1c1cccc(Cl)c1F [Example 8, (2′R,3R,4′R,5′S)—N-(4-carbamoyl-2-methoxyphenyl)-6-chloro-4′-(3-chloro-2-fluorophenyl)-2′-(2,2-dimethylpropyl)-5′-methyl-1,2-dihydrospiro[indole-3,3′-pyrrolidine]-5′-carboxamide]",
7.94,"COc1cc(C(=O)N[C@H]2CCCC[C@H]2CC#Cc2cccc3c2CN(C2CCC(=O)NC2=O)C3=O)ccc1NC(=O)[C@@H]1N[C@@H](CC(C)(C)C)[C@@]2(CNc3cc(Cl)ccc32)[C@H]1c1cccc(Cl)c1F (stereo partly drawn) [Example 40, (2′S,3S,4′S,5′R)-6-chloro-4′-(3-chloro-2-fluorophenyl)-2′-(2,2-dimethylpropyl)-N-(4-{[(1S,2S)-2-{3-[2-(2,6-dioxopiperidin-3-yl)-1-oxo-3H-isoindol-4-yl]prop-2-yn-1-yl}cyclohexyl]carbamoyl}-2-methoxyphenyl)-1,2-dihydrospiro[indole-3,3′-pyrrolidine]-5′-carboxamide]",
7.27,"COc1cc(C(=O)N[C@@H]2CCCC[C@@H]2CC#Cc2cccc3c2CN(C2CCC(=O)NC2=O)C3=O)ccc1NC(=O)[C@@H]1N[C@@H](CC(C)(C)C)[C@@]2(CNc3cc(Cl)ccc32)[C@H]1c1cccc(Cl)c1F (stereo partly drawn) [Example 41, (2′S,3S,4′S,5′R)-6-chloro-4′-(3-chloro-2-fluorophenyl)-2′-(2,2-dimethylpropyl)-N-(4-{[(1R,2R)-2-{3-[2-(2,6-dioxopiperidin-3-yl)-1-oxo-3H-isoindol-4-yl]prop-2-yn-1-yl}cyclohexyl]carbamoyl}-2-methoxyphenyl)-1,2-dihydrospiro[indole-3,3′-pyrrolidine]-5′-carboxamide]",
< 6.00,"COc1cc(C(=O)N2CCCC[C@@H]2C#CC#Cc2cccc3c2CN(C2CCC(=O)NC2=O)C3=O)ccc1NC(=O)[C@@H]1N[C@@H](CC(C)(C)C)[C@@]2(CNc3cc(Cl)ccc32)[C@H]1c1cccc(Cl)c1F (stereo partly drawn) [Example 46, (2′S,3S,4′S,5′R)-6-chloro-4′-(3-chloro-2-fluorophenyl)-2′-(2,2-dimethylpropyl)-N-{4-[(2R)-2-{4-[2-(2,6-dioxopiperidin-3-yl)-1-oxo-3H-isoindol-4-yl]buta-1,3-diyn-1-yl}piperidine-1-carbonyl]-2-methoxyphenyl}-1,2-dihydrospiro[indole-3,3′-pyrrolidine]-5′-carboxamide]",
< 6.00,"COc1cc(C(=O)N2CCCC[C@H]2C#CC#Cc2cccc3c2CN(C2CCC(=O)NC2=O)C3=O)ccc1NC(=O)[C@@H]1N[C@@H](CC(C)(C)C)[C@@]2(CNc3cc(Cl)ccc32)[C@H]1c1cccc(Cl)c1F (stereo partly drawn) [Example 47, (2′S,3S,4′S,5′R)-6-chloro-4′-(3-chloro-2-fluorophenyl)-2′-(2,2-dimethylpropyl)-N-{4-[(2S)-2-{4-[2-(2,6-dioxopiperidin-3-yl)-1-oxo-3H-isoindol-4-yl]buta-1,3-diyn-1-yl}piperidine-1-carbonyl]-2-methoxyphenyl}-1,2-dihydrospiro[indole-3,3′-pyrrolidine]-5′-carboxamide]",
7.95,"COc1cc(C(=O)N2CC(C#Cc3cccc4c3CN(C3CCC(=O)NC3=O)C4=O)C2)ccc1NC(=O)[C@@H]1N[C@@H](CC(C)(C)C)[C@@]2(CNc3cc(Cl)ccc32)[C@H]1c1cccc(Cl)c1F (stereo partly drawn) [Example 55, (2′S,3S,4′S,5′R)-6-chloro-4′-(3-chloro-2-fluorophenyl)-2′-(2,2-dimethylpropyl)-N-[4-(3-{2-[2-(2,6-dioxopiperidin-3-yl)-1-oxo-3H-isoindol-4-yl]ethynyl}azetidine-1-carbonyl)-2-methoxyphenyl]-1,2-dihydrospiro[indole-3,3′-pyrrolidine]-5′-carboxamide]",
